Data: patent US10660872B2, “Methods for treatment of cognitive decline” (Ramot at Tel-Aviv University Ltd., priority 2014, dated 2020)

Experiments:
ICR mice [1] = assay: hot plate test (analgesia); conditions: single intraperitoneal dose, from 15 minutes after injection, hotplate 45° C.
ICR mice [2] = assay: open field test (immobility); conditions: single intraperitoneal dose, five minutes in arena
aged ICR mice = assay: oasis maze test (spatial learning); conditions: 0.002 mg/kg THC, three times a week for three weeks
ICR mice [3] = assay: body temperature using a rectal thermometer; conditions: single intraperitoneal dose
aged mice = assay: Object Recognition Test (visual memory) in aged mice; conditions: 0.002 mg/kg THC intraperitoneal, 3 times a week for three weeks
[4] = conventional dose 1, 2 or 10 mg/kg
[5] = low dose 0.001, 0.002 or 0.01 mg/kg

For `CCCCCc1cc(O)c2c(c1)OC(C)(C)[C@@H]1CCC(C)=C[C@@H]21` [THC, (−)-trans-Δ^9-tetrahydrocannabinol], the “analgesia (latency to respond to noxious stimulus)” value (ICR mice [1]; [4]) was “induced conventional acute cannabinoid effects”, the “analgesia (latency to respond to noxious stimulus)” value (ICR mice [1]; [5]) was “failed to induce any of these effects” and the “immobility (slowing of motor activity)” value (ICR mice [2]; [4]) was “induced conventional acute cannabinoid effects”. For the same molecule, the “immobility (slowing of motor activity)” value (ICR mice [2]; [5]) was “failed to induce any of these effects”, the “time to finding the filled well in test trials” value (aged ICR mice) was “find the filled well in significantly less time than aged mice treated with vehicle alone” and the “hypothermia (reduced body temperature)” value (ICR mice [3]; [4]) was “induced conventional acute cannabinoid effects”. The “hypothermia (reduced body temperature)” value (ICR mice [3]; [5]) was “failed to induce any of these effects” and the “adverse acute effects upon administration” value (aged mice) was “No adverse acute effects were recognized”.
